Laboratory results reported in ChEMBL document CHEMBL2331298, “Flavonoids as receptor tyrosine kinase FLT3 inhibitors” (Bioorg Med Chem Lett, 2013).

Experiments:
[1] = target: T1, Receptor-type tyrosine-protein kinase FLT3 (Homo sapiens, UniProt P36888); test: Inhibition of recombinant FLT3 (unknown origin) by TR-FRET assay
T1 sequence (P36888 whole entry): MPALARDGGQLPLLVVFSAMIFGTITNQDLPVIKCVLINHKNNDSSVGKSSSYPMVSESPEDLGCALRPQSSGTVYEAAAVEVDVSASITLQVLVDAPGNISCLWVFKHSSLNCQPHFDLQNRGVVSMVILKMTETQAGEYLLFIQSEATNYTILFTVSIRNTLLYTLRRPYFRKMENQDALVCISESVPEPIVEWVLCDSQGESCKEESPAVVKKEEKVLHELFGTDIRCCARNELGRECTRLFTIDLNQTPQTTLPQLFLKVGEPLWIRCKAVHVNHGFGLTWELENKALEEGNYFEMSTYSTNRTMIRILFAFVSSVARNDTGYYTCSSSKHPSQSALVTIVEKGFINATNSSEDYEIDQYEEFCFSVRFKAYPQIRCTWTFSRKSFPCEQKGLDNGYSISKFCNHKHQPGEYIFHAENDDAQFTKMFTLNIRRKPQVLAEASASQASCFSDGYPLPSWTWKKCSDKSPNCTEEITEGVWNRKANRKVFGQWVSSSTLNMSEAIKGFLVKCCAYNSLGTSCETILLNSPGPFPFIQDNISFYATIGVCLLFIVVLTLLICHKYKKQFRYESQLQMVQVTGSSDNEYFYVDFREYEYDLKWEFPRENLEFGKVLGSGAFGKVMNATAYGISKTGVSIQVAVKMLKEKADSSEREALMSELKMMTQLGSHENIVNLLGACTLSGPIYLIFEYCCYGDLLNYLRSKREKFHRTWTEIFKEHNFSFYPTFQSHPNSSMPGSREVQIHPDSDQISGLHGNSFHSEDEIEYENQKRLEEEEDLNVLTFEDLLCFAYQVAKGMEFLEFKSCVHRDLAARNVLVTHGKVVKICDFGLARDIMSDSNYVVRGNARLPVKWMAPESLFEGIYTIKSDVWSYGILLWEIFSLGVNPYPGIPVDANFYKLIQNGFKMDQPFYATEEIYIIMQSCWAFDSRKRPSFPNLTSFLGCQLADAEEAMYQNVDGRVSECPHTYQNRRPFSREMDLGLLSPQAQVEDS

[2] = Cytotoxicity against human RS4:11 cells harboring wild type FLT3 after 72 hrs by tetrazolium based Ez CyTox cell viability assay; assay type: functional; conditions: RS4-11, 72 h
MV4-11 [3] = test: Cytotoxicity against human MV4-11 cells harboring FLT3 mutation after 72 hrs by tetrazolium based Ez CyTox cell viability assay; assay type: functional; conditions: MV4-11, 72 h
MV4-11 [4] = test: Cell cycle arrest in human MV4-11 cells harboring FLT3 mutation assessed as accumulation at S phase at 0.1 uM after 48 hrs using propidium iodide staining by flow cytometry (reference value: 15.48%); assay type: functional
MV4-11 [5] = test: Cell cycle arrest in human MV4-11 cells harboring FLT3 mutation assessed as accumulation at G1 phase at 0.1 uM after 48 hrs using propidium iodide staining by flow cytometry (reference value: 69.69%); assay type: functional
MV4-11 [6] = test: Cell cycle arrest in human MV4-11 cells harboring FLT3 mutation assessed as accumulation at sub-G1 phase at 0.1 uM after 48 hrs using propidium iodide staining by flow cytometry (reference value: 3.86%); assay type: functional
MV4-11 [7] = test: Cell cycle arrest in human MV4-11 cells harboring FLT3 mutation assessed as accumulation at G2/M phase at 10 uM after 48 hrs using propidium iodide staining by flow cytometry (reference value: 11.61%); assay type: functional
MV4-11 [8] = test: Cell cycle arrest in human MV4-11 cells harboring FLT3 mutation assessed as accumulation at S phase at 10 uM after 48 hrs using propidium iodide staining by flow cytometry (reference value: 15.48%); assay type: functional
MV4-11 [9] = test: Cell cycle arrest in human MV4-11 cells harboring FLT3 mutation assessed as accumulation at G1 phase at 10 uM after 48 hrs using propidium iodide staining by flow cytometry (reference value: 69.69%); assay type: functional
MV4-11 [10] = test: Cell cycle arrest in human MV4-11 cells harboring FLT3 mutation assessed as accumulation at sub-G1 phase at 10 uM after 48 hrs using propidium iodide staining by flow cytometry (reference value: 3.86%); assay type: functional
MV4-11 [11] = test: Cell cycle arrest in human MV4-11 cells harboring FLT3 mutation assessed as accumulation at G2/M phase at 1 uM after 48 hrs using propidium iodide staining by flow cytometry (reference value: 11.61%); assay type: functional
MV4-11 [12] = test: Cell cycle arrest in human MV4-11 cells harboring FLT3 mutation assessed as accumulation at S phase at 1 uM after 48 hrs using propidium iodide staining by flow cytometry (reference value: 15.48%); assay type: functional
MV4-11 [13] = test: Cell cycle arrest in human MV4-11 cells harboring FLT3 mutation assessed as accumulation at G1 phase at 1 uM after 48 hrs using propidium iodide staining by flow cytometry (reference value: 69.69%); assay type: functional
MV4-11 [14] = test: Cell cycle arrest in human MV4-11 cells harboring FLT3 mutation assessed as accumulation at sub-G1 phase at 1 uM after 48 hrs using propidium iodide staining by flow cytometry (reference value: 3.86%); assay type: functional
MV4-11 [15] = test: Cell cycle arrest in human MV4-11 cells harboring FLT3 mutation assessed as accumulation at G2/M phase at 0.1 uM after 48 hrs using propidium iodide staining by flow cytometry (reference value: 11.61%); assay type: functional

| Compound | IC50 [1] [µM] | GI50 [2] [µM] | GI50 (MV4-11 [3]) [µM] | further results |
| --- | --- | --- | --- | --- |
| O=c1c(OC2O[C@H](CO)[C@H](O)[C@H](O)[C@H]2O)c(-c2ccc(O)c(O)c2)oc2cc(O)cc(O)c12 (stereo not given in full) | > 10 | – | – | – |
| O=c1c(OC2O[C@H](CO)[C@@H](O)[C@H](O)[C@@H]2O)c(-c2ccc(O)c(O)c2)oc2cc(O)cc(O)c12 (stereo not given in full) | > 10 | – | – | – |
| O=c1cc(-c2ccc(O)cc2)oc2cc(O)cc(O)c12 [APIGENIN] | 1.45 | 27.9 | 2.81 | – |
| O=c1cc(-c2ccccc2)oc2cc(O)c(O)c(O)c12 [BAICALEIN] | > 10 | – | – | – |
| O=c1cc(-c2ccccc2)oc2cc(O)cc(O)c12 [CHRYSIN] | > 10 | – | – | – |
| O=C1c2c(O)cc(O)cc2O[C@H](c2ccc(O)cc2)[C@H]1O [DIHYDROKAEMPFEROL] | > 10 | – | – | – |
| O=C1C[C@@H](c2ccc(O)c(O)c2)Oc2cc(O)cc(O)c21 [ERIODICTYOL] | > 10 | – | – | – |
| O=c1c(O)c(-c2ccccc2)oc2cc(O)cc(O)c12 [GALANGIN] | > 10 | – | – | – |
| O=c1c(O[C@@H]2O[C@H](CO)[C@@H](O)[C@H](O)[C@H]2O)c(-c2ccc(O)c(O)c2)oc2cc(O)cc(O)c12 [ISOQUERCETIN] | > 10 | – | – | – |
| O=c1c(O)c(-c2ccc(O)cc2)oc2cc(O)cc(O)c12 [KAEMPFEROL] | 2.32 | > 50 | 3.34 | – |
| O=c1cc(-c2ccc(O)c(O)c2)oc2cc(O)cc(O)c12 [LUTEOLIN] | 0.83 | 7.25 | 1.76 | Activity (MV4-11 [4]): 10.5%; Activity (MV4-11 [5]): 71.25%; Activity (MV4-11 [6]): 13.71%; Activity (MV4-11 [7]): 0.51%; Activity (MV4-11 [8]): 2.09%; Activity (MV4-11 [9]): 66.68%; Activity (MV4-11 [10]): 30.76%; Activity (MV4-11 [11]): 4.2%; Activity (MV4-11 [12]): 12.8%; Activity (MV4-11 [13]): 67.08%; Activity (MV4-11 [14]): 16.42%; Activity (MV4-11 [15]): 4.9% |
| O=c1c(O)c(-c2cc(O)c(O)c(O)c2)oc2cc(O)cc(O)c12 [MYRICETIN] | 1.69 | > 50 | > 50 | – |
| O=C1C[C@@H](c2ccc(O)cc2)Oc2cc(O)cc(O)c21 [NARINGENIN] | > 10 | – | – | – |
| COc1c(O)cc2oc(-c3ccccc3)cc(=O)c2c1O [OROXYLIN A] | 1.48 | 40 | 5.59 | – |
| O=c1c(O)c(-c2ccc(O)c(O)c2)oc2cc(O)cc(O)c12 [QUERCETIN] | 0.59 | 21.6 | 13.1 | – |
| O=c1cc(-c2ccc(O)cc2)oc2cc(O)c(O)c(O)c12 [SCUTELLAREIN] | > 10 | – | – | – |
